Laboratory results taken from PMC6164518 (Marine Drugs, 2018).

How the values were obtained:
equine serum BChE = biological target: T1, equine serum BChE (Equus caballus, UniProt P81908); experiment: biochemical; conditions: BChE from equine serum; mean ± SD from three separate experiments; read-out: IC50 eqBChE
T1 construct: purchased Sigma-Aldrich (Steinheim, Germany); host or cells: equine serum
Method: (§1) The AChE and BChE inhibitory activities of compounds were determined by using a slightly modified Ellman’s method. Electric eel AChE, equine serum BChE, 5,5′-dithiobis(2-nitrobenzoic acid) (DTNB), phosphate buffer solution (PBS, pH 8.0), acetylthiocholine (ATC) iodide, and butyrylthiocholine (BUC) iodide were purchased from Sigma-Aldrich (Steinheim, Germany). […] Enzyme solutions were prepared at 2.0 U/mL in 2-mL aliquots. The assay medium consisted of 10 μL of enzyme, 40 μL of PBS, 20 μL of 0.01 M DTNB, and 10 μL of tested compound. Assayed solutions of tested compounds were pre-incubated with corresponding ChE for 5 min. The reaction was initiated by the addition of 20 μL of 0.01 M substrate (ATC or BUC). The activity was determined by measuring the increase in absorbance at 410 nm at 37 °C in 2-min intervals using Tecan Spark multimode microplate reader (Mannedorf, Switzerland). The percentage of inhibition (I) was calculated from the measured data as follows: I = (Ac − Ai)/Ac × 100%, where Ai and Ac represent the change in the absorbance in the presence of an inhibitor and without an inhibitor, respectively.

Electric eel AChE = biological target: T2, Electric eel AChE (Electrophorus electricus, UniProt O42275); experiment: biochemical; conditions: AChE from electric eel; mean ± SD from three separate experiments; read-out: IC50 EeAChE
T2 construct: purchased Sigma-Aldrich (Steinheim, Germany)
Method: as §1

in vitro = conditions: human
Method: Thus, to verify the hepatotoxicity of 1 and 12j, a 3-(4,5-dimethylthiazol-2-yl)-2,5-diphenyltetrazolium bromide (MTT) assay on the human hepatoma cell line (HepG2) was carried out.
The cytotoxicity of selected compounds was evaluated on HepG2 cells. Cells were inoculated into 96-well plates. After incubation for 24 h, the cells were treated with different concentrations of tested compounds for 24 h, and then were incubated with 10 μL of 3-(4,5-dimethylthiazol-2-yl)-2,5-diphenyltetrazolium bromide (MTT) at 37 °C for 2 h. The formazan dye product was measured by the absorbance at 490 nm on a Tecan Spark multimode microplate reader.

AChE = biological target: T3, AChE (Electrophorus electricus, UniProt O42275); experiment: Kinetic study of AChE inhibition (Lineweaver-Burk, Ellman's method); assay type: biochemical
T3 construct: purchased Sigma-Aldrich (Steinheim, Germany)
Method: (§2) Herein, compound 12j was selected as a representative prototype for kinetic assay to obtain information on the mode of action and binding site of this series of analogues. […].
(§3) The equilibrium constant for binding with the free enzyme (Ki) was obtained from the slope against inhibitor concentration. […].
(§4) Kinetic studies of inhibition on AChE and BChE were performed by using Ellman’s method as described above. […]
(§5) (B) Secondary plot of slopes versus 12j concentrations.

Aβ1–42 and AChE = biological target: T4, Aβ1–42 and AChE (Electrophorus electricus, UniProt O42275); experiment: Inhibition of AChE-induced Aβ1–42 aggregation (ThT fluorescence); assay type: biochemical; conditions: Aβ1–42 2.5 µM, AChE 0.2 U/mL, compound 8 µM; mean ± SD of three experiments
T4 construct: HFIP pre-treated Aβ1–42 (GL Biochem Ltd., shanghai, China) was dissolved in DMSO; purchased GL Biochem Ltd. (Aβ1–42)
Method: The stock solution was centrifuged at the speed of 13,500 rpm for 10 min. The above supernatant was used for experiments. […] Fluorescence emission was measured at 490 nm with an excitation wavelength of 450 nm on a Tecan Spark multimode microplate reader.

BChE = biological target: T5, BChE (Equus caballus, UniProt P81908); experiment: Kinetic study of BChE inhibition (Lineweaver-Burk, Ellman's method); assay type: biochemical
T5 construct: purchased Sigma-Aldrich (Steinheim, Germany); host or cells: equine serum
Method: as §2, §3, §4, §5

Aβ1–42 = biological target: T6, Aβ1–42 (Homo sapiens, UniProt P05067); experiment: Inhibition of self-induced Aβ1–42 aggregation (ThT fluorescence); assay type: biochemical; conditions: Aβ1–42 2.5 µM, compound 10 µM, mean ± SD of three experiments
T6 construct: pre-treated Aβ1–42 (GL Biochem Ltd., Shanghai, China) was dissolved in DMSO; purchased GL Biochem Ltd., Shanghai, China
Method: In order to investigate the inhibition of compounds on Aβ1–42 self-aggregation, a ThT-based fluorometric assay was performed. 1,1,1,3,3,3-hexafluoro-2-propanol (HFIP) pre-treated Aβ1–42 (GL Biochem Ltd., Shanghai, China) was dissolved in DMSO to make a 200 µM stock solution. The stock solution was centrifuged at the speed of 13,500 rpm for 10 min. The above supernatant was used for experiments. The tested compounds were dissolved in DMSO at concentrations of 0.8 mM. A screening assay for the tested compounds to inhibit A aggregation was performed by measuring ThT fluorescence emission. Compounds (2 µL) and 2 µL of 200 µM Aβ1–42 were added into 76 µL of phosphate-buffered saline (PBS at pH 7.4) in a 96-well plate. After incubation for 24 h at room temperature, 80 µL of 5 µM of ThT solution (in 50 mM of glycine-NaOH at pH 8.5) was added to the reaction solution. Fluorescence emission was measured at 490 nm with an excitation wavelength of 450 nm on a Tecan Spark multimode microplate reader. […] The fluorescence intensities were compared, and the % inhibition was calculated by the following equation: 100 − [(Fi − Fb)/(Fo − Fb) × 100], where Fi, Fo and Fb are the fluorescence intensities obtained for Aβ aggregation in the presence of inhibitors Aβ1–42 and ThT; in the presence of Aβ1–42 and THT but no inhibitors; and the blanks containing ThT only.

[1] = estimated from secondary plot of slopes versus inhibitor concentration

T2 sequence (O42275 24-633): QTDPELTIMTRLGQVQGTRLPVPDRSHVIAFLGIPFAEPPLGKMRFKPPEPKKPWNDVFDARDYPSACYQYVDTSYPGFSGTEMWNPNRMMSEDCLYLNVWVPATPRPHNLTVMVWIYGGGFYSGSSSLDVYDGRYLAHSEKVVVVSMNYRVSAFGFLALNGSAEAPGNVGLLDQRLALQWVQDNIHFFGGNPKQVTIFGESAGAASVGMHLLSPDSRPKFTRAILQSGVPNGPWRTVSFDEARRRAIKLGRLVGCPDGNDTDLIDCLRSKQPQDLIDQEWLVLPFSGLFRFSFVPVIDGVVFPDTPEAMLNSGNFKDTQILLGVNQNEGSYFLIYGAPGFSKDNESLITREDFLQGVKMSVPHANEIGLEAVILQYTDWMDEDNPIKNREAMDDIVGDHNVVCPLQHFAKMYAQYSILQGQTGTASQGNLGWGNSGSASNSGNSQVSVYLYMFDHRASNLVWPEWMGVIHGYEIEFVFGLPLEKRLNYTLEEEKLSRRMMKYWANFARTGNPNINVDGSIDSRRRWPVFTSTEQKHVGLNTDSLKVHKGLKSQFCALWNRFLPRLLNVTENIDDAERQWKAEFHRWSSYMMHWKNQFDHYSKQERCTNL
T3 sequence (O42275 24-633): as above
T1 sequence (P81908 whole entry): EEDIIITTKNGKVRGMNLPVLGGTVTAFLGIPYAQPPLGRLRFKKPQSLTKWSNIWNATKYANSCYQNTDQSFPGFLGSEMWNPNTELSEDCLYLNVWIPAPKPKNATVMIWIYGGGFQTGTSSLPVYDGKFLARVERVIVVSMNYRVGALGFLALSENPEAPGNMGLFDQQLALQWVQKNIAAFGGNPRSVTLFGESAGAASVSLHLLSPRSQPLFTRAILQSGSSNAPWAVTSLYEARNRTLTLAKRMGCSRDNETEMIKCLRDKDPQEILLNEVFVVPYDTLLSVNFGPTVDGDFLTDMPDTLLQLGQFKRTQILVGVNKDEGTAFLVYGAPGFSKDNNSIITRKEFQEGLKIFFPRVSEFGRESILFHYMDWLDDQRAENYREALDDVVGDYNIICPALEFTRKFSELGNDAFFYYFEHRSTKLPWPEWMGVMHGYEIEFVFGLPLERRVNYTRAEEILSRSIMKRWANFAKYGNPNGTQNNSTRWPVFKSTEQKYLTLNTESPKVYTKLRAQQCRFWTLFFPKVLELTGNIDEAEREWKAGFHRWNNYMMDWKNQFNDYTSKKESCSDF
T6 sequence (P05067 672-713 limits assumed): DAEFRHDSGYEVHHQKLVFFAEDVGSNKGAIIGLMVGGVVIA
T5 sequence (P81908 whole entry): as the sequence (P81908 whole entry) above
T4 sequence (O42275 24-633): as the sequence (O42275 24-633) above

Compound | IC50 (equine serum BChE) | IC50 (Electric eel AChE) | other results
COc1c(Br)cc(CC(=O)NCCNc2c3c(nc4ccccc24)CCCC3)cc1Br [Compound 10a, 2-(3,5-Dibromo-4-methoxyphenyl)-N-(2-((1,2,3,4-tetrahydroacridin-9-yl)amino)ethyl)acetamide] | 230 ± 10 nM | 880 ± 74 nM | 
Nc1c2c(nc3ccccc13)CCCC2 [Tacrine, reference compound] |  |  | IC50 at 24 h (in vitro): 38900 ± 530 nM
COc1c(Br)cc(CC(=O)NCCCCCCCCNc2c3c(nc4ccccc24)CCCC3)cc1Br [Compound 10g, 2-(3,5-Dibromo-4-methoxyphenyl)-N-(8-((1,2,3,4-tetrahydroacridin-9-yl)amino)octyl)acetamide] | 325 ± 4 nM | 427 ± 16 nM | 
COc1c(Br)cc(CC(=O)NCCCCCCCCCCNc2c3c(nc4ccccc24)CCCC3)cc1Br [Compound 10h, 2-(3,5-Dibromo-4-methoxyphenyl)-N-(10-((1,2,3,4-tetrahydroacridin-9-yl)amino)decyl)acetamide] | 516 ± 37 nM | 638 ± 26 nM | 
COc1ccc(CC(=O)NCCCCCCCNc2c3c(nc4ccccc24)CCCC3)cc1 [Compound 12b, 2-(4-Methoxyphenyl)-N-(7-((1,2,3,4-tetrahydroacridin-9-yl)amino)heptyl)acetamide] | 694 ± 3 nM | 750 ± 54 nM | 
O=C(Cc1ccc(F)c(Br)c1)NCCCCCCCNc1c2c(nc3ccccc13)CCCC2 [Compound 12i, 2-(3-Bromo-4-fluorophenyl)-N-(7-((1,2,3,4-tetrahydroacridin-9-yl)amino)heptyl)acetamide] | 49 ± 4 nM | 748 ± 17 nM | 
O=C(Cc1ccc(Br)cc1)NCCCCCCCNc1c2c(nc3ccccc13)CCCC2 [Compound 12f, 2-(4-Bromophenyl)-N-(7-((1,2,3,4-tetrahydroacridin-9-yl)amino)heptyl)acetamide] | 214 ± 4 nM | 597 ± 28 nM | 
O=C(Cc1ccccc1)NCCCCCCCNc1c2c(nc3ccccc13)CCCC2 [Compound 12l, 2-Phenyl-N-(7-((1,2,3,4-tetrahydroacridin-9-yl)amino)heptyl)acetamide] | 680 ± 54 nM | 760 ± 92 nM | 
O=C(Cc1ccccc1Br)NCCCCCCCNc1c2c(nc3ccccc13)CCCC2 [Compound 12d, 2-(2-Bromophenyl)-N-(7-((1,2,3,4-tetrahydroacridin-9-yl)amino)heptyl)acetamide] | 91 ± 17 nM | 304 ± 4 nM | 
COc1c(Br)cc(CC(=O)NCCCCCNc2c3c(nc4ccccc24)CCCC3)cc1Br [Compound 10d, 2-(3,5-Dibromo-4-methoxyphenyl)-N-(5-((1,2,3,4-tetrahydroacridin-9-yl)amino)pentyl)acetamide] | 100 ± 14 nM | 764 ± 16 nM | 
COc1c(Br)cc(CC(=O)NCCCNc2c3c(nc4ccccc24)CCCC3)cc1Br [Compound 10b, 2-(3,5-Dibromo-4-methoxyphenyl)-N-(3-((1,2,3,4-tetrahydroacridin-9-yl)amino)propyl)acetamide] | 233 ± 13 nM | 771 ± 27 nM | 
COc1c(Br)cc(CC(=O)NCCCCCCNc2c3c(nc4ccccc24)CCCC3)cc1Br [Compound 10e, 2-(3,5-Dibromo-4-methoxyphenyl)-N-(6-((1,2,3,4-tetrahydroacridin-9-yl)amino)hexyl)acetamide] | 54 ± 6 nM | 686 ± 45 nM | 
O=C(Cc1cc(Br)ccc1Br)NCCCCCCCNc1c2c(nc3ccccc13)CCCC2 [Compound 12g, 2-(2,5-Dibromophenyl)-N-(7-((1,2,3,4-tetrahydroacridin-9-yl)amino)heptyl)acetamide] | 62 ± 6 nM | 696 ± 52 nM | 
O=C(Cc1cccc(Br)c1)NCCCCCCCNc1c2c(nc3ccccc13)CCCC2 [Compound 12e, 2-(3-Bromophenyl)-N-(7-((1,2,3,4-tetrahydroacridin-9-yl)amino)heptyl)acetamide] | 149 ± 21 nM | 724 ± 3 nM | 
O=C(Cc1cc(Br)cc(Br)c1)NCCCCCCCNc1c2c(nc3ccccc13)CCCC2 [Compound 12h, 2-(3,5-Dibromophenyl)-N-(7-((1,2,3,4-tetrahydroacridin-9-yl)amino)heptyl)acetamide] | 204 ± 11 nM | 729 ± 21 nM | 
O=C(Cc1cc(Br)ccc1F)NCCCCCCCNc1c2c(nc3ccccc13)CCCC2 [Compound 12j, 2-(5-Bromo-2-fluorophenyl)-N-(7-((1,2,3,4-tetrahydroacridin-9-yl)amino)heptyl)acetamide] | 64 ± 6 nM | 182 ± 6 nM | IC50 at 24 h (in vitro): > 80000 nM; Type of AChE inhibition (AChE; Lineweaver-Burk plots): linear mixed-type; Ki (AChE; [1]): 97.5 nM; Inhibition of Aβ Aggregation (%) AChE-Induced (Aβ1–42 and AChE): 47.73 ± 4.35%; Type of BChE inhibition (BChE; Lineweaver-Burk plots): linear mixed-type; Ki (BChE; [1]): 9.91 nM; Inhibition of Aβ Aggregation (%) Self-Induced (Aβ1–42): 32.37 ± 0.62%
COc1ccc(CC(=O)NCCCCCCCNc2c3c(nc4ccccc24)CCCC3)c(Br)c1 [Compound 12a, 2-(2-Bromo-4-methoxyphenyl)-N-(7-((1,2,3,4-tetrahydroacridin-9-yl)amino)heptyl)acetamide] | 140 ± 4 nM | 324 ± 33 nM | 
COc1c(Br)cc(CC(=O)NCCCCCCCNc2c3c(nc4ccccc24)CCCC3)cc1Br [Compound 10f, 2-(3,5-Dibromo-4-methoxyphenyl)-N-(7-((1,2,3,4-tetrahydroacridin-9-yl)amino)heptyl)acetamide] | 53 ± 7 nM | 314 ± 10 nM | 
COc1c(Br)cc(CC(=O)NCCCCNc2c3c(nc4ccccc24)CCCC3)cc1Br [Compound 10c, 2-(3,5-Dibromo-4-methoxyphenyl)-N-(4-((1,2,3,4-tetrahydroacridin-9-yl)amino)butyl)acetamide] | 195 ± 11 nM | 1050 ± 161 nM | 
O=C(Cc1cc(Cl)ccc1Br)NCCCCCCCNc1c2c(nc3ccccc13)CCCC2 [Compound 12k, 2-(2-Bromo-5-chlorophenyl)-N-(7-((1,2,3,4-tetrahydroacridin-9-yl)amino)heptyl)acetamide] | 104 ± 1 nM | 383 ± 54 nM | 
COc1ccc2c3c1O[C@H]1C[C@@H](O)C=C[C@@]31CCN(C)C2 [Galantamine, reference compound] |  |  | Inhibition of Aβ Aggregation (%) Self-Induced (Aβ1–42): 1.25 ± 0.46%; Inhibition of Aβ Aggregation (%) Self-Induced (Aβ1–42; listed as galantamine): no significant inhibition
COc1ccc(CC(=O)NCCCCCCCNc2c3c(nc4ccccc24)CCCC3)cc1Br [Compound 12c, 2-(3-Bromo-4-methoxyphenyl)-N-(7-((1,2,3,4-tetrahydroacridin-9-yl)amino)heptyl)acetamide] | 152 ± 6 nM | 607 ± 45 nM | 
